Laboratory results: patent publication US20100160401A1, “4-PHENYLIMIDAZOLE-2-THIONE TYROSINASE INHIBITORS AND TREATMENT OR PREVENTION OF PIGMENTARY DISORDERS THEREWITH” (GALDERMA RESEARCH & DEVELOPMENT, BIOT, FRANCE, priority 2007, published 2010)

Target: T1, tyrosinase (Mus musculus, UniProt P11344)
T1 construct: the supernatant obtained constitutes the cell lysate used as tyrosinase source in the enzymatic assay; endogenous in cells; host or cells: B16F1 murine melanoma cells, cultured with alpha-MSH, lysed in 1% Igepal and sonicated; the supernatant was used
T1 sequence (P11344 19-533): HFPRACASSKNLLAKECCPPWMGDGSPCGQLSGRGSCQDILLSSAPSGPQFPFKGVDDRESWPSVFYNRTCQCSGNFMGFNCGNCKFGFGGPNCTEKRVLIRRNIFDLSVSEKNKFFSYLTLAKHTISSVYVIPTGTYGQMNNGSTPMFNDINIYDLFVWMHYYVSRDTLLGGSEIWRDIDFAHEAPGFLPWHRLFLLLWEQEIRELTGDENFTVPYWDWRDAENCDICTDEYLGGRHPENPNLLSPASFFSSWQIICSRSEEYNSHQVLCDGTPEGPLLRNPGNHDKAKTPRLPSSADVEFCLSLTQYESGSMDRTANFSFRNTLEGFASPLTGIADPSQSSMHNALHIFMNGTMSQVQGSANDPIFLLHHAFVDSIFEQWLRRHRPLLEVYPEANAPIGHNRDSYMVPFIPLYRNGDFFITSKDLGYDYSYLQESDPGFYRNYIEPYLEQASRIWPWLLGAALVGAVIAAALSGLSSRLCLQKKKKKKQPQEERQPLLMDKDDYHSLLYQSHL
Test: Tyrosinase activity inhibition assay (B16F1 cell lysate, L-tyrosine substrate, MBTH trapping, absorbance 520 nm)
Type: biochemical
Details: lysate of B16F1 cells (murine melanoma line) as tyrosinase source, 37° C., reading at 520 nm after 6 hours, read-out: Tyrosine hydroxylase/Dopa oxidase IC50
Description: The activity of the inhibitors is measured starting from a lysate of B16F1 cells (murine melanoma line). In the presence of the L-tyrosine substrate, the tyrosinase present in these cells catalyses the hydroxylation of L-tyrosine to give L-DOPA and then the oxidation of the L-DOPA to give dopaquinone. In the presence of MBTH (3-methyl-2-benzothiazolinone hydrazone), the dopaquinone is trapped so as to form a pink complex which absorbs at 520 nm.
The B16F1 cells are cultured in DMEM medium+10% foetal calf serum+10^−9 M α-MSH for 4 days at 37° C. under 7% CO2. They are treated with trypsin, washed with PBS, counted and pelleted. The pellet is taken up at 10^7 cells/ml in lysis buffer (10 mM sodium phosphate, pH 6.8-1% Igepal) and the suspension is treated with ultrasound for 10 seconds. After centrifugation for 30 minutes at 4000 rpm, the supernatant obtained constitutes the cell lysate used as tyrosinase source in the enzymatic assay.
The assays are carried out in duplicate in 384-well plates in a total volume of 50 μl. Each well contains:
40 μl of solution containing 1.25 mM L-tyrosine, 6.25 μM L-DOPA (cofactor) and 3.75 mM MBTH in buffer B (62.25 mM sodium phosphate, pH 6.8-2.5% dimethylformamide),
5 μl of inhibitor diluted in DMSO,
5 μl of cell lysate diluted to ½ in 50 mM Tris HCl buffer, pH 7.5.
The plate is incubated at 37° C. and a spectrophotometric reading is carried out at 520 nm after incubating for 6 hours. To avoid any possible absorption of the products, the system uses corrected absorbance (absorbance at time 6 h absorbance at time zero).
The inhibitors are assayed in terms of dose-response so as to calculate an IC50 (dose which inhibits 50% of the enzymatic activity).
Several internal controls are added to each experiment:
control for 100% activity: the 5 μl of inhibitor are replaced with 5 μl of DMSO,
control for 50% activity: the 5 μl of inhibitor are replaced with 5 μl of phenylthiourea at 300 μM in DMSO,
control for 0% activity: the L-tyrosine substrate is replaced with buffer B.

IC50 | Compound
250 nM | Sc1nc(-c2ccccc2)c[nH]1 [Compound 1, 4-phenyl-1,3-dihydroimidazole-2-thione]
900 nM | COc1ccc(-c2c[nH]c(=S)[nH]2)cc1 [Compound 3, 4-(4-methoxyphenyl)-1,3-dihydroimidazole-2-thione]
3000 nM | S=c1[nH]cc(-c2cccc(Br)c2)[nH]1 [Compound 4, 4-(3-bromophenyl)-1,3-dihydroimidazole-2-thione]
300 nM | Fc1ccc(-c2c[nH]c(=S)[nH]2)cc1 [Compound 8, 4-(4-fluorophenyl)-1,3-dihydroimidazole-2-thione]
600 nM | Cc1ccc(-c2cnc(S)[nH]2)cc1 [Compound 13, 4-(4-methylphenyl)-1,3-dihydroimidazole-2-thione]
